# Measurements from patent US4758580A, “Inhibiting growth of tumors with certain substituted phenoxy dimethyl alkanoic acids, esters or salts” (Yamanouchi Pharmaceutical Co., Ltd., priority 1985, dated 1988).
# What was measured:
# [1] = test system: KB (nasal cavity & pharynx cancer); assay: In vitro cytotoxicity against human tumor cells, KB; format: cell-based; settings: 72 h
# Protocol: (§1) A suspension of cells in a culture medium was transferred into wells in a microplate in an amount of 5×10^4 cells/well. Test sample diluted with a culture medium was added to the suspension in each well, and the mixture was incubated at 37° C. for 3 days in an atmosphere of air containing 5% carbon dioxide. After skimming, sticking cells were dyed which crystalviolet for 10 minutes. After washing with water, 1% sodium lauryl sulfate solution was added to each well, and the absrobancy (optical density) at […] was measured. "% inhibition" was calculated from the following equation. [formula]
# [2] = test system: L-1210; assay: In vitro cytotoxicity against mouse tumor cells, L-1210; format: cell-based; settings: L1210, 72 h
# Protocol: (§2) A suspension of cells in a culture medium was transferred into wells in a microplate in an amount of 1×10^5 cells/wall. Test sample diluted with a culture medium was added to the suspension in each well, and the mixture was incubated on the medium at 37° C. for 3 days in atmosphere of air containing 5% carbon dioxide. Thereafter, the incubated cells were recovered from the microplate and the number of live cells was counted by the dye exclusion test using a 0.5% solution of trypan blue and by using a hemocytomer.
# [3] = test system: Ehrlich solid tumor; assay: Anti-tumor test against Ehrlich solid tumor; format: in vivo, ddY/SLC mice
# Protocol: Ehrlich tumor cells, 2×10^6, on Day 7 after intraperitoneal transplantation to ddY/SLC mice were subcutaneously transplanted in the left abdomen of ddY/SLC mice (5 week age, male), 10 each grouped into one. The active component was intraperitoneally or orally administered in a definite dose 24 hours after the transplantation, according to the schedule shown in Table 1 (A), (B) or (C). An effect of inhibiting growth of tumor was compared, by measuring the long diameter and short diameter of the tumor on 14, 20 and 21 Days after the transplantation, calculating the tumor size (mm^2) and determining a tumor growth inhibition rate of the group administered with the active component to the control group according to the following equation:
# Growth inhibition rate (%)=(C-T)/C×100
# T: means tumor size (mm^2) in the active component-administered group
# C: mean tumor size (mm^2) in the control group
# [4] = test system: Ehrlich (carcinoma); assay: In vitro cytotoxicity against mouse tumor cells, Ehrlich; format: cell-based; settings: Ehrlich, 72 h
# Protocol: as §2
# [5] = test system: Meth A (methylcholanthrene-induced cancer); assay: In vitro cytotoxicity against mouse tumor cells, Meth A; format: cell-based; settings: Meth-A, 72 h
# Protocol: as §2
# [6] = test system: Bowes (melanoma); assay: In vitro cytotoxicity against human tumor cells, Bowes; format: cell-based; settings: 72 h
# Protocol: as §1
# [7] = test system: MH 134 (liver cancer); assay: In vitro cytotoxicity against mouse tumor cells, MH 134; format: cell-based; settings: MH 134, 72 h
# Protocol: as §2
# [8] = test system: MM-46 ascites tumor; assay: Anti-tumor test against mice mammary cancer MM-46 ascites tumor; format: in vivo, C3 H/He/CRJ mice
# Protocol: (§3) MM-46 tumor cells, 1×10^6, on Day 7 after intraperitoneal transplantation to C3 H/He/CRJ mice (5 week age, male) of 10 mice each being grouped in one. The active component was intraperitoneally administered in a definite dose 24 hours after the transplantation according to the schedule shown in Table 5. An effect of tumor growth inhibition was evaluated by a percentage of the median survival time of the administered group versus that of the control group, according to the following equation.
# (§4) T: median survival day of the administered group
# (§5) C: median survival day of the control group
# [9] = test system: ACHN (kidney cancer); assay: In vitro cytotoxicity against human tumor cells, ACHN; format: cell-based; settings: 72 h
# Protocol: as §1
# [10] = test system: Ehrlich ascites tumor; assay: Anti-tumor effect against Ehrlich ascites tumor; format: in vivo, ddY/SLC mice; settings: 25 mg/kg i.p., 1-9 Days
# Protocol: as §3, with “Ehlrich” for “MM-46”, “ddY/SLC mice were intraperitoneally transplanted to ddY/SLC” for “C3 H/He/CRJ”, “4.” for “5.”, “day” for “time”
# as §4, §5
# [11] = test system: liver cancer (MH-134) cells; assay: Inhibition of spontaneous metastasis (to the lymph node) of liver cancer (MH-134) cells in mice; format: in vivo, C3 H/He/SLC mice; settings: 20th day
# Protocol: (a) Inhibition of spontaneous metastasis (to the lymph node) of liver cancer (MH-134) cells in mice
# MH-134 tumor cells, 1×10^6, on Day 7 after intraperitoneal transplantation to C3 H/He/SLC mice were transplanted to the right leg. On the 11th day after the transplantation, the right leg portion wherein the cancer cells were transplanted were cut off. The test compounds were administered orally in a definite dose 24 hours after the transplantation. In order to confirm metastasis-inhibiting effect, on 20th day of the transplantation the mice were anatomised to observe the metastasis to the lymph node in the inguinal portion. [formula] Further, the weight of the lymph node metastasis tumor in the inguinal portion of anatomised mice was measured. [formula]
# [12] = Day 14, 2.5 mg/kg i.p., Days 1, 2, 3, 5 & 6
# [13] = Day 14, 12.5 mg/kg i.p., Days 1, 2, 3, 4, 6, 7, 8, 9
# [14] = Day 14, 25 mg/kg i.p., Days 1, 2, 3, 4 & 7
# [15] = Day 14, 25 mg/kg i.p., Days 1, 2, 3, 4, 6, 7, 8, 9
# [16] = Day 21, 2.5 mg/kg i.p., Days 1, 2, 3, 5 & 6
# [17] = Day 21, 12.5 mg/kg i.p., Days 1, 2, 3, 4, 6, 7, 8, 9
# [18] = Day 21, 25 mg/kg i.p., Days 1, 2, 3, 4 & 7
# [19] = Day 21, 25 mg/kg i.p., Days 1, 2, 3, 4, 6, 7, 8, 9
# [20] = 6.25 mg/kg i.p., 1, 2, 3, 4 and 6 Days
# [21] = 12.5 mg/kg i.p., 1, 2, 3, 4 and 6 Days
# [22] = 25 mg/kg i.p., 1, 2, 3, 4 and 6 Days
# [23] = 50 mg/kg oral, 1, 3, 5, 7, 9, 11, 13 and 15 days
# [24] = 100 mg/kg oral, 1, 3, 5, 7, 9, 11, 13 and 15 days
smiles,measurement,setting,value
"O=c1[nH]cc(F)c(=O)[nH]1 [5-Fluorouracil, reference compound]",IC50,[1],1.75 µg/mL
same,IC50,[2],0.06 µg/mL
same,Growth Inhibition Rate,[3]; [12],42.9%
same,Size of Tumor,[3]; [12],133.7 ± 61.1 mm^2
same,Growth Inhibition Rate,[3]; [13],44.1%
same,Size of Tumor,[3]; [13],142.6 ± 36.9 mm^2
same,Growth Inhibition Rate,[3]; [14],40.0%
same,Size of Tumor,[3]; [14],86.7 ± 35.1 mm^2
same,Growth Inhibition Rate,[3]; [15],54.4%
same,Size of Tumor,[3]; [15],116.3 ± 44.0 mm^2
same,Growth Inhibition Rate,[3]; [16],42.4%
same,Size of Tumor,[3]; [16],306.8 ± 166.8 mm^2
same,Growth Inhibition Rate,[3]; [17],34.2%
same,Size of Tumor,[3]; [17],280.6 ± 68.9 mm^2
same,Growth Inhibition Rate,[3]; [18],57.5%
same,Size of Tumor,[3]; [18],217.8 ± 126.2 mm^2
same,Growth Inhibition Rate,[3]; [19],40.8%
same,Size of Tumor,[3]; [19],252.3 ± 100.3 mm^2
same,IC50,[4],0.05 µg/mL
same,IC50,[5],0.1 µg/mL
same,IC50,[6],0.61 µg/mL
same,IC50,[7],0.009 µg/mL
same,Median Survival Day,[8]; [20],16.0 days
same,Survivors (90 days),[8]; [20],0/10
same,T/C (median survival),[8]; [20],213.3%
same,Median Survival Day,[8]; [21],17.0 days
same,Survivors (90 days),[8]; [21],0/10
same,T/C (median survival),[8]; [21],226.7%
same,Median Survival Day,[8]; [22],20.0 days
same,Survivors (90 days),[8]; [22],0/10
same,T/C (median survival),[8]; [22],266.7%
same,IC50,[9],0.1 µg/mL
same,Median Survival Day,[10],24.5 days
same,No. of 40-day Survivors,[10],0/8
same,T/C (median survival),[10],163.3%
same,Growth inhibition of the metastasis tumor,[11]; [23],48.7%
same,Metastasis-inhibition rate,[11]; [23],17.7%
same,Growth inhibition of the metastasis tumor,[11]; [24],74.2%
same,Metastasis-inhibition rate,[11]; [24],41.2%
